Test results published in article PMC6384738, “Structure-Function Studies of Polymyxin B Lipononapeptides” (Molecules, 2019).
In brackets after ≈: the same amount, converted by molar mass. Where a SMILES comes first, the peptide text is derived from it. Bridges are numbered along the chain shown (N, C = ends). [ ]: non-standard residue; d: D form. The star is where a group is joined. dDab = NCC[C@@H](N)C(=O)O; hSer = N[C@@H](CCO)C(=O)O; Octanoyl = CCCCCCCC(=O)*; Dab = NCC[C@H](N)C(=O)O

What was measured:
[1] = test system: P. aeruginosa FADDI PA070; assay: microbe, parasite or virus in culture; details: for MIC: Pseudomonas aeruginosa, FADDIPA070, 18 h, read-out: MIC P. aeruginosa FADDI PA070; for MIC P. aeruginosa FADDI PA070: FADDI PA070, 18 h
Procedure, shortened: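 Broth microdilution; read-out = minimum inhibitory concentration, mg/L. Comparators: polymyxin B, colistin, vancomycin, gentamicin.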

E. coli ATCC 25922 = assay: microbe, parasite or virus in culture; details: for MIC E. coli ATCC 25922: ATCC 25922, 18 h
Procedure, shortened: (§1)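 Antibacterial activity: broth microdilution MIC (mg/L) against the reference isolate.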

K. pneumoniae ATCC 13833 = assay: microbe, parasite or virus in culture; details: for MIC: Klebsiella pneumoniae, ATCC13833, 18 h, read-out: MIC K. pneumoniae ATCC 13833; for MIC K. pneumoniae ATCC 13833: ATCC 13833, 18 h
Procedure, shortened: as §1

P. aeruginosa ATTC 27853 = assay: microbe, parasite or virus in culture; details: for MIC: Pseudomonas aeruginosa, ATTC27853, 18 h, read-out: MIC P. aeruginosa ATTC 27853; for MIC P. aeruginosa ATTC 27853: ATTC 27853, 18 h
Procedure, shortened: as §1

K. pneumoniae BAA 2146 = assay: microbe, parasite or virus in culture; details: for MIC: Klebsiella pneumoniae, BAA2146, 18 h, read-out: MIC K. pneumoniae BAA 2146; for MIC K. pneumoniae BAA 2146: BAA 2146, 18 h
Procedure, shortened: as §1

S. aureus ATCC 25923 = assay: microbe, parasite or virus in culture; details: for MIC: Staphylococcus aureus, ATCC25923, 18 h, read-out: MIC S. aureus ATCC 25923; for MIC S. aureus ATCC 25923: ATCC 25923, 18 h
Procedure, shortened: as §1

A. baumannii ATCC 19606 = assay: microbe, parasite or virus in culture; details: for MIC: Acinetobacter baumannii, ATCC19606, 18 h, read-out: MIC A. baumannii ATCC 19606; for MIC A. baumannii ATCC 19606: ATCC 19606, 18 h
Procedure, shortened: as §1

[2] = test system: K. pneumoniae ATCC 700603; assay: microbe, parasite or virus in culture; details: for MIC: Klebsiella pneumoniae, ATCC700603, 18 h, read-out: MIC K. pneumoniae ATCC 700603; for MIC K. pneumoniae ATCC 700603: ATCC 700603, 18 h
Procedure, shortened: as §1

in vitro = details: human
Procedure, shortened: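 HK-2 cells seeded 2000 cells/well in DMEM/F12 with 10% FBS, grown 24 h, then exposed to compounds (300 µM to 2.3 µM, 2-fold series; colistin/polymyxin B 1 mM to 7.8 µM) for 24 h at 37 °C. LDH in medium read at 450 nm after 30 min; cytotoxicity % relative to 1% Triton X-100 and untreated cells.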

SMILES | MIC P. aeruginosa FADDI PA070 [1] | MIC E. coli ATCC 25922 (E. coli ATCC 25922) | MIC K. pneumoniae ATCC 13833 (K. pneumoniae ATCC 13833) | MIC P. aeruginosa ATTC 27853 (P. aeruginosa ATTC 27853) | MIC K. pneumoniae BAA 2146 (K. pneumoniae BAA 2146) | MIC S. aureus ATCC 25923 (S. aureus ATCC 25923) | MIC A. baumannii ATCC 19606 (A. baumannii ATCC 19606) | MIC K. pneumoniae ATCC 700603 [2] | MIC [1] | MIC (E. coli ATCC 25922; Escherichia coli, ATCC25922, 18 h, read-out: MIC E. coli ATCC 25922) | MIC (K. pneumoniae ATCC 13833) | MIC (P. aeruginosa ATTC 27853) | MIC (K. pneumoniae BAA 2146) | MIC (S. aureus ATCC 25923) | MIC (A. baumannii ATCC 19606) | MIC [2] | CC50 at 24 h (in vitro)
CN[C@H](CC(C)C)C(=O)N[C@H]1C(=O)N[C@@H](CC(N)=O)C(=O)N[C@H]2C(=O)N[C@H]3C(=O)N[C@H](C(=O)N[C@H](C(=O)O)c4cc(O)cc(O)c4-c4cc3ccc4O)[C@H](O)c3ccc(c(Cl)c3)Oc3cc2cc(c3O[C@@H]2O[C@H](CO)[C@@H](O)[C@H](O)[C@H]2O[C@H]2C[C@](C)(N)[C@H](O)[C@H](C)O2)Oc2ccc(cc2Cl)[C@H]1O [Vanc, vancomycin, reference compound] |  |  |  |  |  |  |  |  | > 32 µg/mL | > 32 µg/mL | > 32 µg/mL | > 32 µg/mL | > 32 µg/mL | 2 µg/mL (≈ 1.38 µM) | > 32 µg/mL | > 32 µg/mL | > 300 µM
CCCCCCCC(=O)N[C@@H](Cc1ccc(O)cc1)C(=O)N[C@H](CCN)C(=O)N[C@H]1CCNC(=O)[C@H]([C@@H](C)O)NC(=O)[C@H](CCN)NC(=O)[C@H](CCN)NC(=O)[C@H](CC(C)C)NC(=O)[C@@H](Cc2ccccc2)NC(=O)[C@H](CCN)NC1=O [Compound 29] (Octanoyl-Y[dDab][Dab][Dab][dF]L[Dab][Dab]T; lactam 3-C) | 8 µg/mL (≈ 6.95 µM) | 16 µg/mL (≈ 13.9 µM) | >32 µg/mL | 4 µg/mL (≈ 3.47 µM) | >32 µg/mL | >32 µg/mL | >32 µg/mL | 16 µg/mL (≈ 13.9 µM) |  |  |  |  |  |  |  |  | > 300 µM
CNC(C)C1CCC(N)C(OC2C(N)CC(N)C(OC3OCC(C)(O)C(NC)C3O)C2O)O1 (centres unmarked) [Gent, gentamicin, reference compound] |  |  |  |  |  |  |  |  | 32 µg/mL (≈ 67 µM) |  | 0.25 µg/mL (≈ 0.523 µM) | > 32 µg/mL | > 32 µg/mL | 0.5 µg/mL (≈ 1.05 µM) | 32 µg/mL (≈ 67 µM) | 8 µg/mL (≈ 16.8 µM) | > 300 µM
CCCCCCCC(=O)N[C@@H](CCN)C(=O)N[C@H](C(=O)N[C@H](CCN)C(=O)N[C@H]1CCNC(=O)[C@H]([C@@H](C)O)NC(=O)[C@H](CCN)NC(=O)[C@H](CCN)NC(=O)[C@H](CC(C)C)NC(=O)[C@@H](Cc2ccccc2)NC(=O)[C@H](CCN)NC1=O)[C@@H](C)O [Compound 20] (Octanoyl-[Dab]T[dDab][Dab][Dab][dF]L[Dab][Dab]T; lactam 4-C) | >32 µg/mL |  | 0.5 µg/mL (≈ 0.42 µM) | 2 µg/mL (≈ 1.68 µM) | 4 µg/mL (≈ 3.36 µM) |  |  | 1 µg/mL (≈ 0.841 µM) |  |  |  |  |  |  |  |  | 183 µM

Further lines, with some results ahead:

MIC P. aeruginosa FADDI PA070 [1] | MIC E. coli ATCC 25922 (E. coli ATCC 25922) | MIC K. pneumoniae ATCC 13833 (K. pneumoniae ATCC 13833) | MIC P. aeruginosa ATTC 27853 (P. aeruginosa ATTC 27853) | MIC K. pneumoniae BAA 2146 (K. pneumoniae BAA 2146) | MIC S. aureus ATCC 25923 (S. aureus ATCC 25923) | MIC A. baumannii ATCC 19606 (A. baumannii ATCC 19606) | MIC K. pneumoniae ATCC 700603 [2] | SMILES | MIC [1] | MIC (E. coli ATCC 25922; Escherichia coli, ATCC25922, 18 h, read-out: MIC E. coli ATCC 25922) | MIC (K. pneumoniae ATCC 13833) | MIC (P. aeruginosa ATTC 27853) | MIC (K. pneumoniae BAA 2146) | MIC (S. aureus ATCC 25923) | MIC (A. baumannii ATCC 19606) | MIC [2] | CC50 at 24 h (in vitro)
8 µg/mL (≈ 7.26 µM) | 32 µg/mL (≈ 29 µM) | >32 µg/mL | 4 µg/mL (≈ 3.63 µM) | >32 µg/mL | >32 µg/mL | >32 µg/mL | >32 µg/mL | CCCCCCCC(=O)N[C@@H](CC(N)=O)C(=O)N[C@H](CCN)C(=O)N[C@H]1CCNC(=O)[C@H]([C@@H](C)O)NC(=O)[C@H](CCN)NC(=O)[C@H](CCN)NC(=O)[C@H](CC(C)C)NC(=O)[C@@H](Cc2ccccc2)NC(=O)[C@H](CCN)NC1=O [Compound 28] (Octanoyl-N[dDab][Dab][Dab][dF]L[Dab][Dab]T; lactam 3-C) |  |  |  |  |  |  |  |  | > 300 µM
8 µg/mL (≈ 7.34 µM) | 16 µg/mL (≈ 14.7 µM) | >32 µg/mL | 2 µg/mL (≈ 1.84 µM) | 8 µg/mL (≈ 7.34 µM) | >32 µg/mL | >32 µg/mL | 8 µg/mL (≈ 7.34 µM) | CCCCCCCC(=O)N[C@@H](CCO)C(=O)N[C@H](CCN)C(=O)N[C@H]1CCNC(=O)[C@H]([C@@H](C)O)NC(=O)[C@H](CCN)NC(=O)[C@H](CCN)NC(=O)[C@H](CC(C)C)NC(=O)[C@@H](Cc2ccccc2)NC(=O)[C@H](CCN)NC1=O [Compound 31] (Octanoyl-[hSer][dDab][Dab][Dab][dF]L[Dab][Dab]T; lactam 3-C) |  |  |  |  |  |  |  |  | 181 µM
